# Read-outs that look alike come from different tables or passages of the source.
# Tests used:
# ALS = details: approved ALS therapeutics, background; cited from earlier work
# [1] = tested on: HSPB8 (Heat Shock Protein Family B (Small) Member 8); details: sh-sy5y cells, 24 h
# HSPB8 = experiment: protein expression of chaperone HSPB8 in SH-SY5Y cells
# TDP-43 [2] = experiment: TDP-43 aggregation (TDP-43 aggregation kit) in H2O2-treated SH-SY5Y cells
# TDP-43 protein = experiment: inhibition of TDP-43 protein aggregation in SH-SY5Y cells (summary statements)
# TDP-25 = experiment: intracellular localization of TDP-25 in SH-SY5Y cells transfected with GFP-TDP-25 (fluorescence microscopy)
# Description: (§1) In FIG. 4, blue fluorescence indicates the nucleus with DAPI, and green fluorescence indicates TDP-25 with GFP.
# (§2) To construct an aggregation model of TDP-43 protein in the SH-SY5Y cells, which are human neuroblastoma cell lines, a GFP-TDP-25 plasmid was transfected into cells, and it may be confirmed that the transfected GFP-TPD-25 (GFP: green fluorescent protein) is present in the cytoplasm.
# TDP-43 [3] = experiment: TDP-43 aggregation in cytoplasm by immunofluorescence staining and fluorescence microscopy in H2O2-treated SH-SY5Y cells
# insoluble TDP-43 = experiment: expression of insoluble TDP-43 in GFP-TDP-25 TDP-43 aggregation model of SH-SY5Y cells; details: GFP-TDP-25 transfected cells; metformin (5 mM), colchicine (1000 nM) alone or in combination; FIG. 4 B and C
# Description: as §1, §2
smiles,measurement,setting,value
CC1=NN(c2ccccc2)C(=O)C1 [Edaravone],effect on life expectancy or disease progression in ALS patients,ALS,help extend life expectancy in patients by several months or delay the progression of the disease at an early stage
same,therapeutic effect in ALS,ALS,only a symptom-relieving effect
Nc1nc2ccc(OC(F)(F)F)cc2s1 [Riluzole],effect on life expectancy or disease progression in ALS patients,ALS,help extend life expectancy in patients by several months or delay the progression of the disease at an early stage
same,therapeutic effect in ALS,ALS,only a symptom-relieving effect
COc1cc2c(c(OC)c1OC)-c1ccc(OC)c(=O)cc1[C@@H](NC(C)=O)CC2 [colchicine],increase in HSPB8 mRNA expression,[1],approximately 2 fold
same,increase of TFEB mRNA expression,"TFEB; sh-sy5y cells, 24 h",2-3 times
same,increase of SQSTM1/p62 mRNA expression,"SQSTM1/p62; sh-sy5y cells, 24 h",2-3 times
same,increase of MAP1LC3A mRNA expression,"MAP1LC3A; sh-sy5y cells, 24 h",2-3 times
same,change in HSPB8 protein expression,HSPB8,inadequate change
same,effect on hydrogen peroxide-induced TDP-43 aggregation,TDP-43 [2],slight effect
same,reduction/inhibition of TDP-43 aggregation (summary),TDP-43 protein,hardly reduced
same,effect on TDP-25 accumulation in the cytoplasm,TDP-25,did not affect
same,effect on TDP-43 aggregation in the cytoplasm,TDP-43 [3],did not inhibit
"OO [hydrogen peroxide (H2O2), hydrogen peroxide]",induction of abnormal aggregation of TDP-43,"TDP-43 [2]; 1 mM hydrogen peroxide, 1 hour, FIG. 2",significantly induced abnormal aggregation of TDP-43
same,induction of TDP-43 aggregation in the cytoplasm,"TDP-43 [3]; 1 mM hydrogen peroxide, 1 hour, FIG. 3 A and B",significantly induced TDP-43 aggregation in the cytoplasm
CN(C)C(=N)N=C(N)N [metformin],TFEB mRNA expression,"TFEB; metformin alone, 0.1-5 mM, 24 hours, FIG. 5",no effect
same,SQSTM1/p62 mRNA expression,"SQSTM1/p62; metformin alone, 0.1-5 mM, 24 hours, FIG. 6",no effect
same,MAP1LC3A mRNA expression,"MAP1LC3A; metformin alone, 0.1-5 mM, 24 hours, FIG. 7",no effect
same,change in HSPB8 protein expression,"HSPB8; metformin (5 mM) alone or colchicine (1000 nM) alone, FIG. 1 D",inadequate change
same,effect on hydrogen peroxide-induced TDP-43 aggregation,"TDP-43 [2]; 24 h drug, then 1 mM H2O2 for 1 hour, metformin 0.1-5 mM, colchicine 1-1000 nM, alone or in combination, FIG. 2",did not have a significant effect
same,reduction/inhibition of TDP-43 aggregation (summary),"TDP-43 protein; colchicine alone, metformin alone, or in combination",hardly reduced
same,effect on expression of insoluble TDP-43,insoluble TDP-43,slightly reduced
same,effect on TDP-25 accumulation in the cytoplasm,"TDP-25; GFP-TDP-25 transfected cells, drugs alone or in combination, FIG. 4 A",did not affect
same,effect on TDP-43 aggregation in the cytoplasm,"TDP-43 [3]; hydrogen peroxide-treated cells, drugs alone or in combination, FIG. 3 A and B",did not inhibit
